Test results reported in PubChem BioAssay AID1949 (Southern Research Institute, 2009).
In brackets after ≈: the same amount, converted by molar mass. Inconclusive results are not listed. Activity calls are given as the source filed them. The rule behind the calls is not given here.

The compounds below were run on M. tuberculosis H37Rv growth inhibition (assay: Mycobacterium tuberculosis H37Rv growth inhibition, cell based, confirmatory dose response (AID 1949);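 note: bacteria grown 7 days with compound before Alamar blue readout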).

With `CCC(=O)c1ccc(OCC(O)CN2CCN(c3ccc(C)cc3C)CC2)cc1` (centres undefined) the IC50 was > 50 mg/L (inactive).
In the case of `COc1cc2c(cc1NC(=O)C(=O)NCCCN1CCOCC1)oc1ccccc12`, the IC50 was > 50 mg/L (inactive).
With `Cc1ccc2nc(-c3ccncc3)cc(C(=O)Nc3ccncc3)c2c1` the IC50 was > 50 mg/L (inactive).
With `Nc1cc(N)c2cc(-c3ccccc3)oc2c1` the IC50 was > 50 mg/L (inactive).
For `COC(=O)c1sc2nc(-c3ccccc3)nc(N3CCN(C)CC3)c2c1C`, the IC50 was > 50 mg/L (inactive).

Point of comparison: `COc1ccc(S(=O)(=O)Nc2cc(Sc3ccccc3)c(O)c3ccccc23)cc1`, IC50 5.29 mg/L (≈ 12.1 µM). Against it:
- CC1CCN(c2ccc(NC(=O)c3ccc([N+](=O)[O-])o3)cc2)CC1 — 17-fold lower, 0.31 mg/L (≈ 0.941 µM)
- CCc1ccc(NC(=S)Nc2ccc(Cl)c(Cl)c2)cc1 — 3.8-fold lower, 1.38 mg/L (≈ 4.24 µM)
- COc1ccccc1N1C(=O)c2cccc3cc([N+](=O)[O-])cc(c23)C1=O — 33-fold lower, 0.16 mg/L (≈ 0.459 µM)
- Cc1nc2ccc(C(=O)OCc3cccc(F)c3)cc2nc1C — 3.1-fold lower, 1.68 mg/L (≈ 5.41 µM)
- Cc1ccc(OCC(O)CN2CCc3ccccc3C2)c(C(C)(C)C)c1 (centres undefined) — within 1.5-fold, 5.9 mg/L (≈ 16.7 µM)
- COC(=O)C(C)Oc1ccc2c(=O)c(-c3ccc(Br)cc3)c(C)oc2c1 (centres undefined) — 2.2-fold lower, 2.42 mg/L (≈ 5.8 µM)
- CCC(OC(C)=O)c1ccc(OC(C)=O)c(OC)c1 (centres undefined) — 3.7-fold lower, 1.43 mg/L (≈ 5.37 µM)
- Cc1cccc(C(=O)NC(=S)Nc2ccc([N+](=O)[O-])cc2O)c1 — 28-fold lower, 0.19 mg/L (≈ 0.573 µM)
- COc1ccc(C2=CC(=O)c3ccccc3C2=O)cc1 — within 1.5-fold, 3.53 mg/L (≈ 13.4 µM)
- COc1cccc(NC(=O)Nc2ccc(C(F)(F)F)cc2)c1 — within 1.5-fold, 5.23 mg/L (≈ 16.9 µM)
- CCOC(=O)c1c(NC(C)=O)sc2c(OCC(O)CN(CC)CC)c(Br)ccc12 (centres undefined) — within 1.5-fold, 4.61 mg/L (≈ 9.46 µM)
- O=C(Nc1ccc(-c2nc3ccccc3c(=O)o2)cc1)C1CCCCC1 — 4.5-fold higher, 23.9 mg/L (≈ 68.7 µM)
- Clc1ccc(C2=CC(c3ccc(Cl)cc3)n3nnnc3N2)cc1 (centres undefined) — 2.6-fold lower, 2.07 mg/L (≈ 6.01 µM)
- FC(F)(F)c1nnc2n1Nc1nc3ccccc3nc1S2 — within 1.5-fold, 4.52 mg/L (≈ 14.6 µM)
- CCOC(=O)c1ccc(NC(=S)Nc2cccc([N+](=O)[O-])c2)cc1 — 23-fold lower, 0.23 mg/L (≈ 0.666 µM)
- Cc1nc2ccc(C(=O)OCc3nnc(-c4ccccc4)o3)cc2nc1C — 1.8-fold lower, 2.98 mg/L (≈ 8.27 µM)
- Cc1nc(Nc2nc3c(c(=O)[nH]2)CCCC3)nc2c(C)cccc12 — 5.3-fold higher, 28.1 mg/L (≈ 87.4 µM)
- COC(=O)CSc1nnc(-c2ccccc2C)o1 — within 1.5-fold, 4.38 mg/L (≈ 16.6 µM)
- C=CCNCCCOc1ccc(Cl)cc1C(C)(C)C — within 1.5-fold, 6.96 mg/L (≈ 24.7 µM)
- COc1ccc(-c2csc(-c3ccc(OC)c(OC)c3)n2)cc1C — lower, < 0.1 mg/L
- FC(F)(F)c1cccc(-n2cc(-c3ccccc3)c3c(NCc4cccnc4)ncnc32)c1 — 3.5-fold lower, 1.51 mg/L (≈ 3.39 µM)
- Fc1ccccc1C1NC(=S)NC2=C1CCc1ccccc12 (centres undefined) — 1.8-fold higher, 9.36 mg/L (≈ 30.2 µM)
- COC(=O)c1ccc(NC(=O)CSc2ccc(F)cc2)cc1 — within 1.5-fold, 4.02 mg/L (≈ 12.6 µM)
- O=C(Nc1ccc(F)c(Cl)c1)C1CC2CCCC(C1)C2=O (centres undefined) — 7.5-fold higher, 39.7 mg/L (≈ 128 µM)
- Cc1cc(C(C)(C)C)ccc1OCCCCn1ccnc1 — 3.8-fold lower, 1.4 mg/L (≈ 4.89 µM)
- CCOC(=O)COc1ccc2c3c(c(=O)oc2c1)CCCCC3 — 1.9-fold lower, 2.73 mg/L (≈ 8.63 µM)
- CCOC(=O)COc1c(Cl)cc(/C=C(/C#N)c2nc3ccc(OC)cc3[nH]2)cc1Cl — 26-fold lower, 0.2 mg/L (≈ 0.448 µM)
- CC1=NN(c2nc(-c3ccc(Cl)cc3)cs2)C(=O)C1C (centres undefined) — 2.6-fold lower, 2.07 mg/L (≈ 6.77 µM)
- CCOC(=O)COc1ccc2c(=O)c(-c3ccccc3F)coc2c1C — lower, < 0.1 mg/L
- O=C(COc1ccc([N+](=O)[O-])cc1)Nc1ccccc1F — 3.5-fold higher, 18.7 mg/L (≈ 64.6 µM)
- COc1ccc(C(=O)Oc2ccc(C(=O)OCc3ccccc3)cc2)cc1OC — 3.8-fold lower, 1.39 mg/L (≈ 3.54 µM)
- O=C(CC1(O)C(=O)N(CCc2ccccc2)c2ccc(Cl)cc21)c1ccncc1 (centres undefined) — within 1.5-fold, 6.03 mg/L (≈ 14.8 µM)
- COc1ccc(OC)c(NC(=O)c2cc3cc(Br)ccc3oc2=O)c1 — 26-fold lower, 0.2 mg/L (≈ 0.495 µM)
- Cc1ccc(C(=O)Oc2ccc(Cl)c3cccnc23)cc1[N+](=O)[O-] — 5.6-fold lower, 0.94 mg/L (≈ 2.74 µM)
- COC(=O)COc1ccc(NC(=O)c2ccccc2I)cc1 — 8.5-fold lower, 0.62 mg/L (≈ 1.51 µM)
- O=[N+]([O-])c1ncn(Cc2ccc(F)cc2Cl)n1 — within 1.5-fold, 6.92 mg/L (≈ 27 µM)
- CCOC(=O)c1ccc(NC(=O)CSc2nnc(-c3ccco3)c(-c3ccco3)n2)cc1 — 3.7-fold higher, 19.7 mg/L (≈ 43.6 µM)
- Cc1ccc(C(=O)NCCC2=CCCCC2)cc1I — 1.8-fold lower, 2.92 mg/L (≈ 7.91 µM)
- CSc1ncc(C(=O)Nc2cccc(C(F)(F)F)c2)cn1 — lower, < 0.1 mg/L
- CCOC(=O)N1CCN(CCC(=O)c2ccc(Cl)cc2)CC1 — 2.2-fold lower, 2.45 mg/L (≈ 7.54 µM)
- O=C(Nc1ccc(Cl)c(Br)c1)c1ccc(Cl)cc1Cl — within 1.5-fold, 4.23 mg/L (≈ 11.1 µM)
- O=C(NCCc1ccc(F)cc1)NC12CC3CC(CC(C3)C1)C2 — 25-fold lower, 0.21 mg/L (≈ 0.664 µM)
- CN(C)C(=S)NC(=O)c1cccc(Cl)c1 — within 1.5-fold, 4.63 mg/L (≈ 19.1 µM)
- Cc1ccc(OCCCCNCCc2ccccc2)c(C)c1 — 1.7-fold higher, 9.13 mg/L (≈ 30.7 µM)
- CC(C(=O)OCc1ccccc1)n1cnc2scc(-c3ccc(Br)cc3)c2c1=O (centres undefined) — 3.5-fold lower, 1.51 mg/L (≈ 3.22 µM)
- O=C(Nc1cccc(C(F)(F)F)c1)Nc1cc(F)c(F)cc1Cl — 3.7-fold higher, 19.5 mg/L (≈ 55.5 µM)
- CCOc1cc(CNCCO)cc(Br)c1OCc1ccc(Cl)cc1Cl — 3.4-fold lower, 1.54 mg/L (≈ 3.43 µM)
- Cn1c(Sc2ccc([N+](=O)[O-])c3cccnc23)nnc1-c1ccccc1 — 6.6-fold lower, 0.8 mg/L (≈ 2.2 µM)
- CCOC(=O)Cc1ccc2c(=O)c(Oc3ccc(F)cc3)coc2c1 — 6.2-fold higher, 33 mg/L (≈ 96.3 µM)
- COCc1nc2ccccc2n1CCCOc1ccc(C)cc1 — 1.6-fold higher, 8.25 mg/L (≈ 26.6 µM)
- CCOC(=O)/C(C#N)=C/c1ccc(-c2ccc(F)cc2)o1 — 21-fold lower, 0.25 mg/L (≈ 0.876 µM)
- Cc1cc(OCC(O)CNC(C)c2ccccc2)ccc1C(C)C (centres undefined) — within 1.5-fold, 5.52 mg/L (≈ 16.9 µM)
- Nc1nnc(Sc2ccc([N+](=O)[O-])c3ncccc23)s1 — 1.5-fold lower, 3.47 mg/L (≈ 11.4 µM)
